These results are taken from US8067440B2, “Phosphonium salts derivatives and uses thereof” (Valorisation-Recherche, Limited Partnership, priority 2004, dated 2011).

Where a name gives a salt, the structure may show the parent alone.

What is called melting point is the temperature of the solid-liquid transition. `[Br-].c1ccc(P(c2ccccc2)c2cccc([P+](c3ccccc3)(c3ccccc3)c3ccccc3)c2)cc1` had a melting point of 215 to 220 °C.
In turn, `BrCc1ccc(-c2ccc([P+](c3ccccc3)(c3ccccc3)c3ccccc3)cc2)cc1` (as salt: perchlorate) [(16), 4-(4-bromomethylphenyl)phenyl triphenylphosphonium perchlorate] gave a melting point of 72 to 76 °C.
